These results are taken from patent US12612650B2, “Methods for improved homologous recombination and compositions thereof” (LIFE TECHNOLOGIES CORPORATION, priority 2017, dated 2026).

The assay relates to genomic locus of beta-actin. Description: OFP-positive cells by flow cytometry after electroporation of Cas9 RNP and donor DNA into human primary T cells. The format is cell-based. The conditions noted are these: 30 μM, 48 hours. As for the experimental part:
Human peripheral blood mononuclear cells (PBMCs) were isolated from peripheral blood using Ficoll-Paque PLUS density gradient according to manufacturer's instructions. The human primary T cells were then isolated using DYNABEADS™ UNTOUCHED™ Human T Cells Kit and expanded using OPTMIZER™ CTS™ T-Cell Expansion SFM supplemented with 200 IU/mL of IL-2. The activation and expansion of human T cells were carried out using DYNABEADS™ Human T-Expander CD3/CD28 kit. On day 3 of activation, T cells were harvested for transfection.
For transfection of primary T cells, 1×10^5 cells were used per NEON® electroporation with voltage set at 1700V, pulse width set at 20 ms, and the number of pulses set at 1, respectively. […] Cells were analyzed at 48 hours post transfection.
Traditionally, a plasmid donor was used to incorporate large DNA molecules into the genome. […] At 48 hours post transfection, we analyzed the percentages of OFP-positive cells using flow cytometry. […]
Linear ds- or ss-DNA donor could be degraded in vivo by exonucleases. […] At 48 hours post transfection, the percentages of OFP-positive cells were determined by flow cytometric analysis. […]
The disruption of NHEJ repair pathway is known to improve HDR efficiency. […] At 48 hours post transfection, we analyzed the cells by flow cytometry.
On the technique in general: In flow cytometry, cells or beads pass a laser one at a time.

In the case of `O=c1cc(N2CCOCC2)oc2c1ccc1ccccc12` [Nu7026, 2-(4-Morpholinyl)-4H-naphthol[1,2-b]pyran-4-one], the “increase of the percentage of OFP-positive cells” value by setting is: (amine-modified donor DNA) approximately 2 fold; (unmodified donor DNA) “approximately 5 fold”.
